Reference: article PMC10817945, “Design of a novel analogue peptide with potent antibiofilm activities against Staphylococcus aureus based upon a sapecin B-derived peptide” (Scientific Reports, 2024)
Converted amounts (≈) assume the structure as drawn. Read-outs that look alike come from different tables or passages of the source. Non-standard residues stand in square brackets, D forms with d. Residues, ends and D or L forms follow the SMILES beside them.

Legend:
[1] = test system: preformed S. aureus biofilms; type: cell-based, Staphylococcus aureus; conditions: for MBEC, range over isolates: preformed biofilms
Experimental: The eradicative activity of KLK and mKLK peptides against preformed S. aureus biofilms was evaluated by determining MBEC, as previously described. The 24-h biofilms developed in TSB in a 96-well plate were washed three times with 200 μl PBS solution. Concentrations of the peptides ranging from 2 to 1024 µg/ml were prepared. A volume of 100 μl of each concentration was added to a corresponding well, and plates were incubated for 18–20 h at 37 °C. Then, wells were washed with sterile PBS solution, and 100 μl of PBS solution was added. The wells were thoroughly scraped with a sterile pipette tip, vortexed and sonicated to release the biofilm cells from the well surface. Subsequently, 10 μl of well contents were plated on MHA. Colonies were counted after 20 h at 37 °C. The MBEC was defined as the lowest concentration of peptide that inhibited bacterial regrowth.

[2] = test system: S. aureus strains; experiment: Inhibition of bacterial surface attachment (crystal violet); type: cell-based, Staphylococcus aureus
Experimental: To investigate the inhibitory effect of KLK and mKLK peptides on bacterial surface attachment and biofilm formation, the bacterial suspension in TSB with a concentration of 10^7 CFU/ml was prepared from overnight culture. An aliquot of 100 μl of the bacterial suspension was added to wells of 96-well plates containing 100 μl of the peptides solution with concentrations of 1×, 1/2× and 1/4× MIC, resulting in the final peptides concentrations of 1/2×, 1/4× and 1/8× MIC. To investigate the inhibitory effect of the peptides on surface attachment the incubation was performed at 37 °C for 2 h and to evaluate their inhibitory activity on biofilm formation the incubation was performed at 37 °C for 24 h. The wells containing only TSB medium were used as negative controls. After incubation, the contents of the wells were removed and washed three times with PBS and the wells were stained with 200 μl of 0.1% crystal violet for 20 min. The plates were washed again and excess dye was removed. A volume of 200 μl of 95% ethanol was added to each well for 20 min and absorbance was measured at 570 nm by a microplate reader.

[3] = test system: S. aureus; parameters: method as in ref 17 (Manabe et al.); conditions: ref 17 (Manabe et al.); cited from earlier work
[4] = test system: clinical Salmonella isolates; parameters: method as in PMID 34361810; conditions: cited from earlier work
[5] = in vitro; conditions: human
Experimental: To quantitatively investigate the cytotoxicity of mKLK and KLK peptides, the 2,3-bis-(2-methoxy-4-nitro-5-sulfophenyl)-2H-tetrazolium-5-carboxanilide (XTT) (cell proliferation kit II, Roche, Germany) assay was performed on human embryonic kidney (HEK)-293 cell line, as described previously[47], The HEK-293 cells were grown in DMEM supplemented with 4 µM glutamine, 10% fetal bovine serum (FBS), and 100 units/ml penicillin/streptomycin at 37 °C in a 5% CO2 and 95% air atmosphere. Following incubation for 24 h, the culture medium was discarded and fresh medium containing different concentrations of KLK and mKLK peptides (1.56, 3.12, 6.25, 12.5, and 25 µM) was added and incubated at 37 °C for 20 min. Then, the culture medium was discarded and 100 µl of XTT reagent mixture was added and incubated for 4 h. Finally, the absorbance was measured at 570 nm using an ELISA plate reader (Anthos 2020, England). The percentage of cell inhibition was calculated using the following formula: % Cell inhibition = Test Abs/Control Abs × 100.

[6] = 50% human serum, 37 °C, 2 h, reverse-phase HPLC
Experimental: To assess the serum stability of mKLK peptide to proteolytic degradation, the D-form mKLK peptide (0.5 mg) was dissolved in 4 ml of 50% (v/v) of serum from male healthy donors in PBS and incubated at 37 °C for 0, 60, and 120 min. After each incubation time, the samples were analyzed by reverse-phase HPLC on a Jupiter proteo C18 column (250 × 4.6 mm) and monitored with a fluorescence detector (wavelength: 560 nm). Analysis of the samples was performed over a linear gradient of 10–60% acetonitrile containing 0.08% trifluoroacetic acid for 50 min at a flow rate of 1 ml/min[48].

[7] = test system: S. aureus ATCC25923 and MRSA-1 strains; experiment: Catheter-associated biofilm infection mouse model; type: in vivo, Staphylococcus aureus; conditions: Balb/c mice, 5 days; for reduction of biofilm formation on catheters (crystal-violet assay): ATCC 25923; for reduction of biofilm on catheters (crystal-violet assay): MRSA
Experimental: All animal experiments were performed in accordance with the protocols approved by the Animal Ethics Committee of Ahvaz Jundishapur University of Medical Sciences (Application No. IR.AJUMS.ABHC.REC.1400.014). Female Balb/c mice (Laboratory Animal Reproduction and Maintenance Center Ahvaz Jundishapur University Ahvaz, Iran) were housed one mouse per cage, under sanitary conditions at 22–25 °C and at 12 h light/dark cycles, with access to sanitized pellet food and water. Prior to each experiment, mice were acclimated to room conditions for 1 week. To increase the experimental accuracy, the cages were disinfected with a povidone-iodine solution of 10%, and the bedding materials were autoclaved, and replaced every day.
In this study, eight groups (five mice per group) of 12-week-old female Balb/c mice were obtained from the Pasture Institute of Iran (Tehran, Iran). Three groups were used to investigate the effect of three concentrations of mKLK against ATCC25923 strain, three groups for three concentrations of mKLK against MRSA, and two groups for control). Mice were anesthetized by injection of ketamine 10% and xylazine 2% (in a ratio of 3 to 1). To create a subcutaneous pocket to place three 1-cm-long polyurethane catheters, a small incision was made. Three catheters were subcutaneously implanted on the lower back of mice. Following implantation of the catheters, injection of bacterial suspension and then mKLK peptide was performed into the subcutaneous pocket. […] In addition, PBS was injected alone into animals as a control group without contamination to evaluate the sterility of the surgical procedure. The incision was closed with Vetbond. Tissue adhesive (Kimiatajhiz teb, Iran) and cleansed with 10% PI solution. After 5 days, all mice were euthanized with CO2, and the catheters were removed. Subsequently, catheter-associated biofilms were evaluated using the CFU counting method, crystal violet assay, and SEM.
The biofilm mass attached to the catheter surface was measured using a colorimetric assay (crystal violet). After removing the catheters from the mouse skin and double washing with PBS, each catheter was placed in wells of a 24-well microtiter plate, and absolute methanol was added to fix the biofilm to the catheter surface. Then, the methanol was discarded and the catheters were dried at room temperature. After staining with crystal violet 0.1% for 5 min at room temperature, the dye was discarded and the catheters were washed with PBS. Then, 33% acetic acid was added to each well to release the absorbed dye. […] To enumerate biofilm cells, catheters were removed, transferred to sterile tubes, vortexed, and sonicated. Bacterial numbers were determined by serial diluting and plating on TSA[56].

[8] = test system: S. aureus; experiment: Effect of 1/2× MIC on bacterial growth; type: cell-based, Staphylococcus aureus
Source text: To ensure that the antibiofilm property of mKLK is independent of its ability to inhibit bacterial growth, the effect of 1/2× MIC on bacterial growth was examined.

[9] = ATCC25923, 1/4MIC, control 2.136±0.01
[10] = ATCC25923, 1/8MIC, control 2.136±0.01
[11] = MRSA-1, 1/2MIC, control 1.861±0.02
[12] = MRSA-1, 1/4MIC, control 1.861±0.02
[13] = MRSA-1, 1/8MIC, control 1.861±0.02
[14] = MRSA-2, 1/2MIC, control 2.311±0.005
[15] = MRSA-2, 1/4MIC, control 2.311±0.005
[16] = MRSA-2, 1/8MIC, control 2.311±0.005
[17] = MRSA-3, 1/2MIC, control 1.491±0.06
[18] = MRSA-3, 1/4MIC, control 1.491±0.06
[19] = MRSA-3, 1/8MIC, control 1.491±0.06
[20] = MSSA-1, 1/2MIC, control 2.107±0.08
[21] = MSSA-1, 1/4MIC, control 2.107±0.08
[22] = MSSA-1, 1/8MIC, control 2.107±0.08
[23] = MSSA-2, 1/2MIC, control 2.061±0.01
[24] = MSSA-2, 1/8MIC, control 2.061±0.01

| Structure (SMILES) | MBEC ([1]; ATCC25923) [µg/mL] | MBEC ([1]; MRSA-1) [µg/mL] | MBEC ([1]; MRSA-2) [µg/mL] | MBEC ([1]; MRSA-3) [µg/mL] | MBEC ([1]; MSSA-1) [µg/mL] | MBEC ([1]; MSSA-2) [µg/mL] | MBEC, range over isolates [1] [µg/mL] | crystal violet absorbance at 570 nm, bacterial attachment, Mean±SD [2, 9] | crystal violet absorbance at 570 nm, bacterial attachment, Mean±SD [2, 10] | crystal violet absorbance at 570 nm, bacterial attachment, Mean±SD [2, 11] | crystal violet absorbance at 570 nm, bacterial attachment, Mean±SD [2, 12] | crystal violet absorbance at 570 nm, bacterial attachment, Mean±SD [2, 13] | crystal violet absorbance at 570 nm, bacterial attachment, Mean±SD [2, 14] | crystal violet absorbance at 570 nm, bacterial attachment, Mean±SD [2, 15] | crystal violet absorbance at 570 nm, bacterial attachment, Mean±SD [2, 16] | crystal violet absorbance at 570 nm, bacterial attachment, Mean±SD [2, 17] | crystal violet absorbance at 570 nm, bacterial attachment, Mean±SD [2, 18] | crystal violet absorbance at 570 nm, bacterial attachment, Mean±SD [2, 19] | crystal violet absorbance at 570 nm, bacterial attachment, Mean±SD [2, 20] | crystal violet absorbance at 570 nm, bacterial attachment, Mean±SD [2, 21] | further results |
| --- | --- | --- | --- | --- | --- | --- | --- | --- | --- | --- | --- | --- | --- | --- | --- | --- | --- | --- | --- | --- | --- |
| CC(C)C[C@@H](NC(=O)[C@H](N)CCCCN)C(=O)N[C@H](CCCCN)C(=O)N[C@H](CC(C)C)C(=O)N[C@H](CC(C)C)C(=O)N[C@H](CC(C)C)C(=O)N[C@H](CC(C)C)C(=O)N[C@H](CC(C)C)C(=O)N[C@H](CCCCN)C(=O)N[C@H](CC(C)C)C(=O)N[C@H](CCCCN)C(N)=O [KLK] (H-[dK][dL][dK][dL][dL][dL][dL][dL][dK][dL][dK]-NH2; N-terminus assumed) | 512 | 1024 | 1024 | 1024 | 512 | 512 | 512 to 1024 | 1.965±0.03 | 2.03±0.07 | 1.508±0.03 | 1.712±0.01 | 1.8±0.17 | 2.082±2.02 | 2.146±0.008 | 2.198±0.04 | 1.031±0.07 | 1.369±0.01 | 1.428±0.06 | 1.89±0.002 | 1.925±0.06 | crystal violet absorbance at 570 nm, bacterial attachment, Mean±SD ([2]; ATCC25923, 1/2MIC, control 2.136±0.01): 1.904±0.08; crystal violet absorbance at 570 nm, bacterial attachment, Mean±SD [2, 22]: 2.006±0.01; crystal violet absorbance at 570 nm, bacterial attachment, Mean±SD [2, 23]: 1.804±0.03; crystal violet absorbance at 570 nm, bacterial attachment, Mean±SD [2, 24]: 1.958±0.07; MIC [3]: 4 µg/mL (≈ 3.03 µM); MIC [4]: > 256 µM; IC50 at 20 min [5]: 28.8 µM |
| CC(C)C[C@@H](NC(=O)[C@H](N)Cc1c[nH]c2ccccc12)C(=O)N[C@H](Cc1c[nH]c2ccccc12)C(=O)N[C@H](C)C(=O)N[C@H](CC(C)C)C(=O)N[C@H](CC(C)C)C(=O)N[C@H](CCCCN)C(=O)N[C@H](CC(C)C)C(=O)N[C@H](CC(C)C)C(=O)N[C@H](CCCCN)C(=O)N[C@H](CC(C)C)C(=O)N[C@H](CCCCN)C(N)=O [mKLK] (H-[dW][dL][dW][dA][dL][dL][dK][dL][dL][dK][dL][dK]-NH2; N-terminus assumed) | 64 | 64 | 128 | 64 | 32 | 32 | 32 to 128 | 1.789±0.01 | 1.952±0.07 | 1.361±0.03 | 1.599±0.08 | 1.723±0.02 | 1.496±0.01 | 1.811±0.19 | 1.906±0.13 | 0.944±0.07 | 1.078±0.07 | 1.119±0.12 | 1.229±0.07 | 1.419±0.01 | percentage of the peptide remaining [6]: 79%; crystal violet absorbance at 570 nm, bacterial attachment, Mean±SD [2, 22]: 1.592±0.36; crystal violet absorbance at 570 nm, bacterial attachment, Mean±SD [2, 23]: 1.199±0.09; crystal violet absorbance at 570 nm, bacterial attachment, Mean±SD [2, 24]: 1.576±0.46; reduction of biofilm formation on catheters (crystal-violet assay) ([7]; 1/2× MIC): 62%; reduction of biofilm formation on catheters (crystal-violet assay) ([7]; 1/4×MIC): 36%; reduction of biofilm formation on catheters (crystal-violet assay) ([7]; 1 × MIC): 72%; reduction of biofilm on catheters (crystal-violet assay) ([7]; 1/2× MIC): 58%; reduction of biofilm on catheters (crystal-violet assay) ([7]; 1/4× MIC): 27%; reduction of biofilm on catheters (crystal-violet assay) ([7]; 1× MIC): 73%; effect on bacterial growth [8]: did not affect the bacterial growth |
